Results from paper PMC5581131, “The novel sphingosine-1-phosphate receptors antagonist AD2900 affects lymphocyte activation and inhibits T-cell entry into the lymph nodes” (Oncotarget, 2017).

Legend:
[1] = parameters: method as in unpublished data; settings: previous studies; ref unpublished data; cited from earlier work
murine splenocytes = test: Mouse allogeneic MLR with murine splenocytes; type: cell-based; settings: 1-day pretreatment, 3-day mice MLR; mean of up to, highest concentration
Experimental: Supplementary Figure 4: AD2900 inhibits mice splenocytes proliferation in allogeneic activation in vitro. In vivo- the […]
(A) The levels of proliferative response of mouse splenocytes after one day pretreatment with different concentrations of AD2900 were tested by mouse allogeneic mixed lymphocyte reaction (MLR) assay followed by a [3H] thymidine incorporation analysis. [3H] thymidine was incorporated for at least 16 hours at the 3rd day of the experiment. Significance is compared to untreated mice splenocytes. (B) C57BL/6 mice were orally administered AD2900 or FTY720. Leucocytes from blood, spleen and pLNs were collected and stained with TCR-β, CD62L and CD44 florescent antibodies and then analyzed by FACS analysis. The percent of CD62L+CD44+ (Tcm) like cells out of the total T cell population (TCR-β+) in blood, spleen and pLNs are shown. All the significances are compared to untreated healthy mice. Graphs summarize results of at least three independent experiments. Results of Student’s t test :*( P < 0.05, two-tailed test), ** (P < 0.01, two-tailed test), *** (P < 0.001, two-tailed test), **** (P < 0.0001, two-tailed test).
(also on this page, place not known: www.impactjournals.com/oncotarget/ Oncotarget, Materials 2017 Supplementary) […]

IFN-γ = IFN-γ secretion from activated PBMCs, ELISA; type: cell-based, human; settings: 1-day pretreatment, 5th day of MLR
Experimental: Figure 1 AD2900 inhibits human lymphocyte proliferation in allogeneic activation (A, B) The levels of proliferative response of human peripheral blood lymphocytes (PBMCs) after 1-day pretreatment with different concentrations of AD2900, AD2750, YZ138, YZ158, and YZ297 (A) or AD2900, FTY720, and SEW2871 (B) were tested by human allogeneic mixed lymphocyte reaction (MLR) assay, followed by a [3H] thymidine incorporation analysis. (C) Apoptosis of AD2900-treated activated PBMCs was tested by AnnexinV-propidium iodide (PI) FACS analysis following 1-day AD2900 pretreatment and MLR. All the samples were compared to the untreated PBMC control. (D) IFN-γ secretion from activated PBMCs was tested by ELISA following a 1-day AD2900 pretreatment in MLR. On the 5th day of hMLR, supernatants were collected and assayed for the level of IFN-γ. (E) Jurkat cell viability after a 1-day treatment with different concentrations of AD2900, FTY720, and SEW2871 was tested by XTT viability assay. […]
Human PBLs were collected from human whole blood collected from healthy donors. […] For the thymidine incorporation assay, after 4 days of co-culture, cells were pulsed with ^3H-thymidine at 1 μCi (0.037MBq) per well (PerkinElmer, MA, USA) for 16 additional hours and then harvested onto glass-fiber filters. ^3H-thymidine incorporation was measured using Top Count. […]

CCCCCCCCCCCCCCCCNC(CO)(CO)CO [AD2900]
stable at room temperature [1]: at least 2 years | inhibition of mice T-cell proliferation (murine splenocytes): 73% ± 3% | IFN-γ concentrations in the supernatant (IFN-γ): reduced level
